# Test results: US20230219931A1, “FUSED HETEROARYL HYDROXAMATES AS STING AGONISTS” (BiSiChem Co., Ltd., priority 2022, published 2023)
# Structures can show the parent of a compound that is named as a salt.
# System: ISG reporter activity in THP1-Dual cell
# Assay: ISG reporter assay
# Assay type: cell-based
# Conditions: Homo sapiens, compounds incubated with cells for 24 hours, QUANTI-Blue, absorbance at 655 nm
row,SMILES,EC50
1,"CCn1nc(C)cc1C(=O)Nc1nc2cc(C(N)=O)cc(OC)c2n1C/C=C/Cn1c(NC(=O)c2cc(C)nn2CC)nc2cc(C(N)=O)cc(OCC#CCC3CCNCC3)c21 [Example 43, (E)-1-(4-(5-carbamoyl-2-(1-ethyl-3-methyl-1H-pyrazole-5-carboxamido)-7-((4-(piperidin-4-yl)but-2-yn-1-yl)oxy)-1H-benzo[d]imidazol-1-yl)but-2-en-1-yl)-2-(1-ethyl-3-methyl-1H-pyrazole-5-carboxamido)-7-methoxy-1H-benzo[d]imidazole-5-carboxamide hydrochloride]",50 to 500 nM
2,"CCn1nc(C)cc1C(=O)Nc1nc2cc(C(N)=O)cc(OC)c2n1C/C=C/Cn1c(NC(=O)c2cc(C)nn2CC)nc2cc(C(N)=O)cc(OCC#CCC3CCN(C(=O)OC4CC4)CC3)c21 [Example 44, cyclopropyl (E)-4-(4-((5-carbamoyl-1-(4-(5-carbamoyl-2-(1-ethyl-3-methyl-1H-pyrazole-5-carboxamido)-7-methoxy-1H-benzo[d]imidazol-1-yl)but-2-en-1-yl)-2-(1-ethyl-3-methyl-1H-pyrazole-5-carboxamido)-1H-benzo[d]imidazol-7-yl)oxy)but-2-yn-1-yl)piperidine-1-carboxylate]",< 50 nM
3,"CCn1nc(C)cc1C(=O)Nc1nc2cc(C(N)=O)cc(OC)c2n1C/C=C/Cn1c(NC(=O)c2cc(C)nn2CC)nc2cc(C(N)=O)cc(OCC#CCC3CCN(C(=O)OCCO)CC3)c21 [Example 45, 2-hydroxyethyl (E)-4-(4-((5-carbamoyl-1-(4-(5-carbamoyl-2-(1-ethyl-3-methyl-1H-pyrazole-5-carboxamido)-7-methoxy-1H-benzo[d]imidazol-1-yl)but-2-en-1-yl)-2-(1-ethyl-3-methyl-1H-pyrazole-5-carboxamido)-1H-benzo[d]imidazol-7-yl)oxy)but-2-yn-1-yl)piperidine-1-carboxylate]",< 50 nM
4,"CCn1nc(C)cc1C(=O)Nc1nc2cc(C(N)=O)cc(OC)c2n1C/C=C/Cn1c(NC(=O)c2cc(C)nn2CC)nc2cc(C(N)=O)cc(OCC#CCC3CCN(S(=O)(=O)C4CC4)CC3)c21 [Example 48, (E)-1-(4-(5-carbamoyl-2-(1-ethyl-3-methyl-1H-pyrazole-5-carboxamido)-7-methoxy-1H-benzo[d]imidazol-1-yl)but-2-en-1-yl)-7-((4-(1-(cyclopropylsulfonyl)piperidin-4-yl)but-2-yn-1-yl)oxy)-2-(1-ethyl-3-methyl-1H-pyrazole-5-carboxamido)-1H-benzo[d]imidazole-5-carboxamide]",< 50 nM
5,"CCn1nc(C)cc1C(=O)Nc1nc2cc(C(N)=O)cc(OC)c2n1C/C=C/Cn1c(NC(=O)c2cc(C)nn2CC)nc2cc(C(N)=O)cc(OCC#CCC3CN(C(=O)OC(C)(C)C)C3)c21 [Example 50, tert-butyl (E)-3-(4-((5-carbamoyl-1-(4-(5-carbamoyl-2-(1-ethyl-3-methyl-1H-pyrazole-5-carboxamido)-7-methoxy-1H-benzo[d]imidazol-1-yl)but-2-en-1-yl)-2-(1-ethyl-3-methyl-1H-pyrazole-5-carboxamido)-1H-benzo[d]imidazol-7-yl)oxy)but-2-yn-1-yl)azetidine-1-carboxylate]",< 50 nM
6,"CCn1nc(C)cc1C(=O)Nc1nc2cc(C(N)=O)cc(OC)c2n1C/C=C/Cn1c(NC(=O)c2cc(C)nn2CC)nc2cc(C(N)=O)cc(OCC#CCC3CCCN(C(=O)OC(C)(C)C)C3)c21 (stereo not shown) [Example 52, tert-butyl (E)-3-(4-((5-carbamoyl-1-(4-(5-carbamoyl-2-(1-ethyl-3-methyl-1H-pyrazole-5-carboxamido)-7-methoxy-1H-benzo[d]imidazol-1-yl)but-2-en-1-yl)-2-(1-ethyl-3-methyl-1H-pyrazole-5-carboxamido)-1H-benzo[d]imidazol-7-yl)oxy)but-2-yn-1-yl)piperidine-1-carboxylate]",< 50 nM

# The next lines start with the values.
row,EC50,SMILES
1,< 50 nM,"CCn1nc(C)cc1C(=O)Nc1nc2cc(C(N)=O)cc(OC)c2n1C/C=C/Cn1c(NC(=O)c2cc(C)nn2CC)nc2cc(C(N)=O)cc(OCC#CCC3CCN(C(=O)C4CCN(C(=O)OC(C)(C)C)CC4)CC3)c21 [Example 46, tert-butyl (E)-4-(4-(4-((5-carbamoyl-1-(4-(5-carbamoyl-2-(1-ethyl-3-methyl-1H-pyrazole-5-carboxamido)-7-methoxy-1H-benzo[d]imidazol-1-yl)but-2-en-1-yl)-2-(1-ethyl-3-methyl-1H-pyrazole-5-carboxamido)-1H-benzo[d]imidazol-7-yl)oxy)but-2-yn-1-yl)piperidine-1-carbonyl)piperidine-1-carboxylate]"
2,< 50 nM,"CCn1nc(C)cc1C(=O)Nc1nc2cc(C(N)=O)cc(OC)c2n1C/C=C/Cn1c(NC(=O)c2cc(C)nn2CC)nc2cc(C(N)=O)cc(OCC#CCC3CCN(C(=O)N4CCN(C(=O)OC(C)(C)C)CC4)CC3)c21 [Example 47, tert-butyl (E)-4-(4-(4-((5-carbamoyl-1-(4-(5-carbamoyl-2-(1-ethyl-3-methyl-1H-pyrazole-5-carboxamido)-7-methoxy-1H-benzo[d]imidazol-1-yl)but-2-en-1-yl)-2-(1-ethyl-3-methyl-1H-pyrazole-5-carboxamido)-1H-benzo[d]imidazol-7-yl)oxy)but-2-yn-1-yl)piperidine-1-carbonyl)piperazine-1-carboxylate]"
3,< 50 nM,"CCn1nc(C)cc1C(=O)Nc1nc2cc(C(N)=O)cc(OC)c2n1C/C=C/Cn1c(NC(=O)c2cc(C)nn2CC)nc2cc(C(N)=O)cc(OCC#CCC3CCN(S(=O)(=O)N4CCN(C(=O)OC(C)(C)C)CC4)CC3)c21 [Example 49, tert-butyl (E)-4-((4-(4-((5-carbamoyl-1-(4-(5-carbamoyl-2-(1-ethyl-3-methyl-1H-pyrazole-5-carboxamido)-7-methoxy-1H-benzo[d]imidazol-1-yl)but-2-en-1-yl)-2-(1-ethyl-3-methyl-1H-pyrazole-5-carboxamido)-1H-benzo[d]imidazol-7-yl)oxy)but-2-yn-1-yl)piperidin-1-yl)sulfonyl)piperazine-1-carboxylate]"
4,< 50 nM,"CCn1nc(C)cc1C(=O)Nc1nc2cc(C(N)=O)cc(OC)c2n1C/C=C/Cn1c(NC(=O)c2cc(C)nn2CC)nc2cc(C(N)=O)cc(OCC#CCC3CCN(C(=O)OC(C)(C)C)C3)c21 (stereo not shown) [Example 51, tert-butyl (E)-3-(4-((5-carbamoyl-1-(4-(5-carbamoyl-2-(1-ethyl-3-methyl-1H-pyrazole-5-carboxamido)-7-methoxy-1H-benzo[d]imidazol-1-yl)but-2-en-1-yl)-2-(1-ethyl-3-methyl-1H-pyrazole-5-carboxamido)-1H-benzo[d]imidazol-7-yl)oxy)but-2-yn-1-yl)pyrrolidine-1-carboxylate]"
